Patent US20240390390A1, “NITRIC OXIDE RELEASING PROSTAMIDE AS NEUROPROTECTIVE AGENT” (Nicox SA, priority 2021, published 2024)

What was measured:
[1] = tested on: subjects with open-angle glaucoma or ocular hypertension, non-study eyes with normal IOP; settings: 0.024% once daily in the evening up to 12 months, cited from earlier work
[2] = tested on: ischemia/reperfusion injury of the optic nerve induced by endothelin-1 (ET-1) in rabbits; assay: Ophthalmic artery resistive index (OA-RI) by ecocolor Doppler in ET-1 ischemia/reperfusion rabbit model; type: in vivo, New Zealand white (NZW) rabbits; parameters: key: Pourcelot resistive index = (PSV−EDV)/PSV; settings: for Ophthalmic artery resistive index (OA-RI), Baseline: prior to ET-1 dosing and prior to test item
Procedure: (§1) This series of experiments were performed to determine the effect of Compound (I) on ocular vascular reactivity i.e. ophthalmic artery resistive index (OA-RI) and, consequently, on retinal function after repeated ocular topical dosing in a well-defined model of ischemia/reperfusion injury of the optic nerve induced by the retrobulbar injection of endothelin-1 (ET-1) in rabbits.
(§2) Adult male New Zealand white (NZW) rabbits weighting 1.5-2.0 kg were used. The animals were kept in individual cages, food and water were provided ad libitum. The ischaemia/reperfusion lesion of the optic nerve was obtained by subtenonian injection twice a week with 500 μL of 250 nM ET-1 (Fluka, Israel) in water using a lacrimal cannula under anesthesia produced by ketamine (20 mg/kg, Lobotor, ACME, 100 mg/ml) and xilazine (5 mg/kg, Sedaxylan 2%, Dechra Veterinary Products S.r.l) intramuscularly. Animals were treated with ET-1 for 6 weeks. Compound (I) 0.1% (1 mg/mL) solution or vehicle were administered as eye drop (30 μL/eye), twice a day (around 10:00 AM and 4:00 PM) starting 2 weeks after ET-1 first dosing until the end of the experiment.
Ophthalmic Artery Resistive Index (OA-RI) was estimated using an ecocolor Doppler DynaView™ II SSD-1700 (Aloka Holding Europe AG, Milan, Italy) prior to ET-1 treatment (baseline, time 0), and weekly thereafter until the end of the study. From week 2 to week 4, morning dosing with test article or vehicle were omitted on the day of hemodynamic measurements in order to have virtually drug-free conditions (16-18 h post last dose) at the time of testing. Pourcelot resistive index for ophthalmic artery (OA-RI) was calculated as following: (PSV−EDV)/PSV where PSV and EDV refer to Peak Systolic Velocity and End Diastolic Velocity, respectively.

[3] = tested on: ischemia/reperfusion injury of the optic nerve induced by endothelin-1 (ET-1) in rabbits; assay: Electroretinogram (ERG) in ET-1 ischemia/reperfusion rabbit model; type: in vivo, New Zealand white (NZW) rabbits
Procedure: as §1, §2
Electroretinogram (ERG). Topical anesthesia was applied using one drop […] oxybuprocaine hydrochloride, 4 mg/ml. The eyes were then dilated by topical application of tropicamide 1% and, when needed, adapted to darkness for at least 2 hours prior to standard ERGs recording in both eyes using contact lens corneal electrodes so to have sufficiently stable and amplified recordings. The ERG signals [(amplitude, microvolts (μV)] were recorded using Retimax (CSO, Florence, Italy) and according to the current International Society for Clinical Electrophysiology (ISCEV) indications; specifically, the dark-adapted 0.01 ERG (rod response), dark-adapted 3.0 ERG (combined rod-cone response) and, light-adapted 3.0 (cone response) were recorded. Flashes intensity varied: • a) from 0.01 photopic cd·s·m^−2 to 0.025 scotopic candela-seconds per meter squared (cd·s·m^−2) with a minimum interval between flashes of 2 s for the dark-adapted 0.01 ERG; • b) from 3.0 photopic cd·s·m^−2 to 7.5 scotopic cd·s·m^−2 with a minimum interval between flashes of 10 s for the dark-adopted 3.0 ERG • c) from 3.0 photopic cd·s·m^−2 to 7.5 scotopic cd·s·m^−2 with a minimum interval between flashes of 0.5 s and a light adaptation strength of 30 cd·s·m^−2 for the light-adopted 3.0 ERG. In all cases ERG recordings lasted 250 ms. […].
Measurements were taken prior ET-1 first dose (baseline, time 0) and then at the end of week-2 (prior to vehicle- or Compound (I) first day-first dose) and at the end of week-6 (36 h after vehicle or Compound (I)-last day-last dose).

[4] = tested on: patients with open-angle glaucoma or ocular hypertension; assay: Phase 2 clinical trial, reduction of elevated intraocular pressure (IOP); type: in vivo, human
Procedure: The efficacy of Compound (I) for the reduction of elevated intraocular pressure (IOP) was evaluated in a Phase 2 clinical trial conducted in 433 patients with open-angle glaucoma or ocular hypertension, treated once daily for 27 days.

[5] = 0.1% solution, 30 μL/eye eye drop bid
[6] = 0.1% solution, 30 μL/eye eye drop bid, listed as Cpd (1)
[7] = 0.1% solution, 30 μL/eye bid, 36 h after last dose, ± S.E.M
[8] = after 2 weeks ET-1, prior to first dose of test item, ± S.E.M
[9] = prior to ET-1 and test item, ± S.E.M

O=C(CCC/C=C\C[C@@H]1[C@@H](CC[C@@H](O)CCc2ccccc2)[C@H](O)C[C@@H]1O)OCCCCO[N+](=O)[O-] [Latanoprostene Bunod]
IOP lowering from baseline, Japanese population ([1]; fellow eyes with baseline IOP ≤19 mmHg): 3.2-3.9 mmHg
IOP lowering from baseline, Caucasian population ([1]; fellow eyes with baseline IOP ≤21 mmHg): 4.2-4.9 mmHg

CCNC(=O)CCC/C=C\C[C@@H]1[C@@H](/C=C/[C@H](CCc2ccccc2)OC(=O)CCCCCO[N+](=O)[O-])[C@H](O)C[C@@H]1O [Compound (I), Hexanoic acid, 6-(nitrooxy)-, (1S,2E)-3-[(1R,2R,3S,5R)-2-[(2Z)-7-(ethylamino)-7-oxo-2-hepten-1-yl]-3,5-dihydroxycyclopentyl]-1-(2-phenylethyl)-2-propen-1-yl ester]
Ophthalmic artery resistive index (OA-RI), ET-1 (3-weeks) + Test items (1 week daily bid) [2, 5]: 0.35 ± 0.03
Ophthalmic artery resistive index (OA-RI), ET-1 (4-weeks) + Test items (2 weeks daily bid) [2, 5]: 0.32 ± 0.03
Ophthalmic artery resistive index (OA-RI), ET-1 (5 weeks) + Test items (3 weeks daily bid) [2, 5]: 0.32±0.03
Ophthalmic artery resistive index (OA-RI), ET-1 (6 weeks) + Test items (4 weeks daily bid) [2, 5]: 0.33±0.02
Ophthalmic artery resistive index (OA-RI), ET-1 (5 weeks) + Test items (3 weeks daily bid) [2, 6]: 0.32 ± 0.03
Ophthalmic artery resistive index (OA-RI), ET-1 (6 weeks) + Test items (4 weeks daily bid) [2, 6]: 0.33 ± 0.02
Ophthalmic artery resistive index (OA-RI), ET-1 (2 weeks) ([2]; after 2 weeks ET-1, prior to first dose of test item): 0.36 ± 0.03
Ophthalmic artery resistive index (OA-RI), Baseline [2]: 0.30±0.02
Ophthalmic artery resistive index (OA-RI), Baseline ([2]; listed as Cpd (1)): 0.30 ± 0.02
ERG Amplitude, Dark adapted 0.01 (Rod response), ET-1 (6 weeks) + Test items (4 weeks daily bid) [3, 7]: 44.3 ± 4.5 μV
ERG Amplitude, Dark adapted 3.0 (Rod/cone response), ET-1 (6 weeks) + Test items (4 weeks daily bid) [3, 7]: 122.8 ± 11.4 μV
ERG Amplitude, Light adapted 3.0 (cone response), ET-1 (6 weeks) + Test items (4 weeks daily bid) [3, 7]: 64.2 ± 6.8 μV
ERG Amplitude, Dark adapted 0.01 (Rod response), ET-1 (2 weeks) [3, 8]: 37.6 ± 6.2 μV
ERG Amplitude, Dark adapted 3.0 (Rod/cone response), ET-1 (2 weeks) [3, 8]: 96.6 ± 9.4 μV
ERG Amplitude, Light adapted 3.0 (cone response), ET-1 (2 weeks) [3, 8]: 60.2 ± 4.3 μV
Impairment in the ERG wave amplitude versus vehicle ([3]; eyes treated for 4 weeks, dark-adapted 0.01, dark-adapted 3.0 and Light-adapted 3.0): significantly (p<0.05) less impairment
ERG Amplitude, Dark adapted 0.01 (Rod response), Baseline [3, 9]: 42.3 ± 6.9 μV
ERG Amplitude, Dark adapted 3.0 (Rod/cone response), Baseline [3, 9]: 118.0 ± 10.3 μV
ERG Amplitude, Light adapted 3.0 (cone response), Baseline [3, 9]: 67.6 ± 6.4 μV
Conjunctival hyperemia, treated patients ([4]; Phase 2, highest dose tested): 16.8%
Tolerability ([4]; Phase 2, once daily for 27 days): well tolerated
